This note sets out measurements from patent US20250353891A1 (MEDIMMUNE LIMITED, priority 2022, published 2025).

Starred links: 1 amine or outer side, 2 acyl side, 3 side chain; linkers in the order of their positions; H or OH if unused. Non-standard residues stand in square brackets, D forms with d. Residues, ends and D or L forms follow the SMILES beside them. Groups on a side chain read outwards from the residue. *: point of attachment. C18 diacid = O=C(O)CCCCCCCCCCCCCCCCC(=O)*; γGlu = O=C(O)[C@H](CCC(=O)[*:2])N[*:1]; αMeF = C[C@](N)(Cc1ccccc1)C(=O)O; AEEA = NCCOCCOCC(=O)O; Aib = CC(C)(N)C(=O)O

Assay [1] deals with human GLP-1 receptor (hGLP-1R) (Homo sapiens, UniProt P43220). Put plainly: cAMP production (HTRF) in CHO cells expressing hGLP-1R. The settings on record: for EC50: Table 6, peptides modified at position 17, cAMP in CHO hGLP-1R cells, geometric mean, read-out: hGLP-1R EC50; for % Relative Potency Ratio: Table 6, % GLP-1R activity relative to GLP-1 / % GlucR activity relative to glucagon. On the set-up: expressed in transfected cells. It counts as cell-based. An outline of the steps:
(§1)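 Cells were resuspended in assay buffer at batch-optimized density, typically 1×10^5 cells/mL for hGLP-1R and 2×10^5 cells/mL for hGCGR. After 30 min incubation at room temperature with compound, cAMP was measured by two-step HTRF. EC50 values came from 4-parameter logistic fits of % Delta F.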
A general note: Changes in cAMP serve as a functional read-out for many G protein-coupled receptors.

The target of assay [2] is human glucagon receptor (hGCGR) (Homo sapiens, UniProt P47871). Put plainly: cAMP production (HTRF) in CHO cells expressing hGCGR. The assay is classed as cell-based. On the set-up: expressed in transfected cells. The settings on record: Table 6, peptides modified at position 17; cAMP in CHO hGCGR cells; geometric mean; read-out: hGluc-R EC50. An outline of the steps: as §1
human glucagon receptor (hGCGR), sequence (P47871 26-477): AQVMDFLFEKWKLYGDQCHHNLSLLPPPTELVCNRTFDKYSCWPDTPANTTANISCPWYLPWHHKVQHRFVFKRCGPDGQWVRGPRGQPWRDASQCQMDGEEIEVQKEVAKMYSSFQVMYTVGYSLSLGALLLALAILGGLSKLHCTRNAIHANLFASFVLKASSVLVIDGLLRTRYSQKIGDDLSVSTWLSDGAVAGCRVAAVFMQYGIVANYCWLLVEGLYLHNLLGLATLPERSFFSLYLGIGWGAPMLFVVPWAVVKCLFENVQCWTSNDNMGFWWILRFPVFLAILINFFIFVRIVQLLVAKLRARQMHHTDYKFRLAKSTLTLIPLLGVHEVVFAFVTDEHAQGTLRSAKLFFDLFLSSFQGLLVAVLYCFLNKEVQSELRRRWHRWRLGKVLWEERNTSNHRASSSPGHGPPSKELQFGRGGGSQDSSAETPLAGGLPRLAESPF

human GLP-1 receptor (hGLP-1R), sequence (P43220 24-463): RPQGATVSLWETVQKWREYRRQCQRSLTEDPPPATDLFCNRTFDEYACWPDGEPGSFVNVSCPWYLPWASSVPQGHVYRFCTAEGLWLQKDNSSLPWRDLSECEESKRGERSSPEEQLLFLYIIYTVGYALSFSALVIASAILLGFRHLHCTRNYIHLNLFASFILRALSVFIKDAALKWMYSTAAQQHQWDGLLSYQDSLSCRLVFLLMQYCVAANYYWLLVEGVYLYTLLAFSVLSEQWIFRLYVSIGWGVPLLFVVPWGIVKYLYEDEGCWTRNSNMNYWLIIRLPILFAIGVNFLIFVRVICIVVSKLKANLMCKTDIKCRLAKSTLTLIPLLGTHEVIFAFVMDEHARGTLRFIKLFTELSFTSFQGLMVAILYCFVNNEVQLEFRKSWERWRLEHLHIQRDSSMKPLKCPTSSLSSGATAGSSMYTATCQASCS

As usually defined, the EC50 is the concentration that produces a half-maximal response. Turning to `CC(C)C[C@H](NC(=O)[C@H](Cc1c[nH]c2ccccc12)NC(=O)[C@H](CCC(N)=O)NC(=O)[C@@H](NC(=O)[C@H](Cc1ccccc1)NC(=O)[C@H](CC(=O)O)NC(=O)[C@H](CCCNC(=N)N)NC(=O)[C@H](C)NC(=O)[C@H](CCCNC(=N)N)NC(=O)[C@H](CCCCNC(=O)COCCOCCNC(=O)COCCOCCNC(=O)CC[C@H](NC(=O)CC[C@H](NC(=O)CCCCCCCCCCCCCCCCCCC(=O)O)C(=O)O)C(=O)O)NC(=O)[C@@H](NC(=O)[C@H](CC(=O)O)NC(=O)[C@H](CC(C)C)NC(=O)[C@](C)(Cc1ccccc1)NC(=O)[C@H](CCCCN)NC(=O)[C@H](CO)NC(=O)[C@@H](NC(=O)[C@H](CC(=O)O)NC(=O)[C@H](CO)NC(=O)[C@@H](NC(=O)[C@H](Cc1ccccc1)NC(=O)[C@@H](NC(=O)CNC(=O)[C@H](CCC(N)=O)NC(=O)C(C)(C)NC(=O)[C@@H](N)Cc1c[nH]cn1)[C@@H](C)O)[C@@H](C)O)C(C)C)[C@@H](C)O)C(C)C)C(=O)N[C@@H](CC(C)C)C(=O)N[C@@H](CCC(=O)O)C(=O)NC(C)(C)C(=O)NCC(N)=O` [Peptide 458], the values for the EC50 in assay [1] and in assay [2] were 0.114 nM and 0.385 nM, respectively. Also, in assay [1], the “% Relative Potency Ratio” value came to 6.7.

Regarding `CC(C)C[C@H](NC(=O)[C@H](CC(C)C)NC(=O)[C@H](Cc1c[nH]c2ccccc12)NC(=O)[C@H](CCCNC(=N)N)NC(=O)[C@@H](NC(=O)[C@H](Cc1ccccc1)NC(=O)[C@H](CC(=O)O)NC(=O)[C@H](CCC(N)=O)NC(=O)[C@H](C)NC(=O)[C@H](CCCNC(=N)N)NC(=O)[C@H](CCCCNC(=O)COCCOCCNC(=O)COCCOCCNC(=O)CC[C@H](NC(=O)CCCCCCCCCCCCCCCCC(=O)O)C(=O)O)NC(=O)[C@H](CCCCN)NC(=O)[C@H](CC(=O)O)NC(=O)[C@H](CC(C)C)NC(=O)[C@](C)(Cc1ccccc1)NC(=O)[C@H](CCCCN)NC(=O)[C@H](CO)NC(=O)[C@@H](NC(=O)[C@H](CC(=O)O)NC(=O)[C@H](CO)NC(=O)[C@@H](NC(=O)[C@H](Cc1ccccc1)NC(=O)[C@@H](NC(=O)CNC(=O)[C@H](CCC(N)=O)NC(=O)C(C)(C)NC(=O)[C@@H](N)Cc1c[nH]cn1)[C@@H](C)O)[C@@H](C)O)C(C)C)C(C)C)C(=O)N[C@@H](C)C(=O)N[C@@H](CCC(=O)O)C(N)=O` [Peptide 459] (H-H[Aib]QGTFTSDVSK[αMeF]LDKK([AEEA-AEEA-γGlu-C18 diacid])RAQDFVRWLLAE-NH2), the EC50 in assay [1] is 0.0327 nM; in assay [2], 0.0369 nM. Moreover, the “% Relative Potency Ratio” value in assay [1] turned out to be 2.2.

Turning to `CC(C)C[C@H](NC(=O)[C@H](CC(C)C)NC(=O)[C@H](Cc1c[nH]c2ccccc12)NC(=O)[C@H](CCCNC(=N)N)NC(=O)[C@@H](NC(=O)[C@H](Cc1ccccc1)NC(=O)[C@H](CC(=O)O)NC(=O)[C@H](CCC(N)=O)NC(=O)[C@H](C)NC(=O)[C@H](CCCNC(=N)N)NC(=O)[C@H](CCCCNC(=O)COCCOCCNC(=O)COCCOCCNC(=O)CC[C@H](NC(=O)CCCCCCCCCCCCCCCCCCC(=O)O)C(=O)O)NC(=O)[C@H](CCCCN)NC(=O)[C@H](CC(=O)O)NC(=O)[C@H](CC(C)C)NC(=O)[C@](C)(Cc1ccccc1)NC(=O)[C@H](CCCCN)NC(=O)[C@H](CO)NC(=O)[C@@H](NC(=O)[C@H](CC(=O)O)NC(=O)[C@H](CO)NC(=O)[C@@H](NC(=O)[C@H](Cc1ccccc1)NC(=O)[C@@H](NC(=O)CNC(=O)[C@H](CCC(N)=O)NC(=O)C(C)(C)NC(=O)[C@@H](N)Cc1c[nH]cn1)[C@@H](C)O)[C@@H](C)O)C(C)C)C(C)C)C(=O)N[C@@H](C)C(=O)N[C@@H](CCC(=O)O)C(N)=O` [Peptide 460], the EC50 in assay [1] was found to be 0.117 nM; in assay [2], 0.0665 nM. In assay [1], the “% Relative Potency Ratio” value is listed as 1.1.

`CC(C)C[C@H](NC(=O)[C@H](CC(C)C)NC(=O)[C@H](Cc1c[nH]c2ccccc12)NC(=O)[C@H](CCC(N)=O)NC(=O)[C@@H](NC(=O)[C@H](Cc1ccccc1)NC(=O)[C@H](CC(=O)O)NC(=O)[C@H](CCCNC(=N)N)NC(=O)[C@H](C)NC(=O)[C@H](CCCNC(=N)N)NC(=O)[C@H](CCCCNC(=O)COCCOCCNC(=O)COCCOCCNC(=O)CC[C@H](NC(=O)CCCCCCCCCCCCCCCCC(=O)O)C(=O)O)NC(=O)[C@@H](NC(=O)[C@H](CC(=O)O)NC(=O)[C@H](CC(C)C)NC(=O)[C@](C)(Cc1ccccc1)NC(=O)[C@H](CCCCN)NC(=O)[C@H](CO)NC(=O)[C@@H](NC(=O)[C@H](CC(=O)O)NC(=O)[C@H](CO)NC(=O)[C@@H](NC(=O)[C@H](Cc1ccccc1)NC(=O)[C@@H](NC(=O)CNC(=O)[C@H](CCC(N)=O)NC(=O)C(C)(C)NC(=O)[C@@H](N)Cc1c[nH]cn1)[C@@H](C)O)[C@@H](C)O)C(C)C)[C@@H](C)O)C(C)C)C(=O)N[C@@H](CCC(=O)O)C(=O)N[C@@H](C)C(=O)NCC(=O)O` [Peptide 462] (H-H[Aib]QGTFTSDVSK[αMeF]LDTK([AEEA-AEEA-γGlu-C18 diacid])RARDFVQWLLEAG-OH; N-terminus assumed): the EC50 turned out to be 0.0395 nM in assay [1] and 0.0892 nM in assay [2]. In addition, the “% Relative Potency Ratio” value in assay [1] worked out at 4.5.

Take `CC(C)C[C@H](NC(=O)[C@H](CC(=O)O)NC(=O)[C@H](CC(C)C)NC(=O)[C@](C)(Cc1ccccc1)NC(=O)[C@H](CCCCN)NC(=O)[C@H](CO)NC(=O)[C@@H](NC(=O)[C@H](CC(=O)O)NC(=O)[C@H](CO)NC(=O)[C@@H](NC(=O)[C@H](Cc1ccccc1)NC(=O)[C@@H](NC(=O)CNC(=O)[C@H](CCC(N)=O)NC(=O)C(C)(C)NC(=O)[C@@H](N)Cc1c[nH]cn1)[C@@H](C)O)[C@@H](C)O)C(C)C)C(=O)N[C@@H](CCCCNC(=O)COCCOCCNC(=O)COCCOCCNC(=O)CC[C@H](NC(=O)CC[C@H](NC(=O)CCCCCCCCCCCCCCCCC(=O)O)C(=O)O)C(=O)O)C(=O)N[C@@H](CCCNC(=N)N)C(=O)N[C@@H](C)C(=O)N[C@@H](CCC(N)=O)C(=O)N[C@@H](CC(=O)O)C(=O)N[C@@H](Cc1ccccc1)C(=O)N[C@H](C(=O)N[C@@H](CCC(N)=O)C(=O)N[C@@H](Cc1c[nH]c2ccccc12)C(=O)N[C@@H](CC(C)C)C(=O)N[C@@H](CC(C)C)C(=O)NC(C)(C)C(=O)N[C@H](C(=O)O)[C@@H](C)O)C(C)C` [Peptide 465] (H-H[Aib]QGTFTSDVSK[αMeF]LDLK([AEEA-AEEA-γGlu-γGlu-C18 diacid])RAQDFVQWLL[Aib]T-OH; N-terminus assumed): in assay [1], the EC50 was found to be 0.485 nM and the “% Relative Potency Ratio” value is 1.8. In addition, in assay [2], the EC50 was found to be 0.436 nM.

As to `CC(C)C[C@H](NC(=O)[C@H](Cc1c[nH]c2ccccc12)NC(=O)[C@H](CCC(N)=O)NC(=O)[C@@H](NC(=O)[C@H](Cc1ccccc1)NC(=O)[C@H](CC(=O)O)NC(=O)[C@H](CCC(N)=O)NC(=O)[C@H](C)NC(=O)[C@H](CCCNC(=N)N)NC(=O)[C@H](CCCCNC(=O)COCCOCCNC(=O)COCCOCCNC(=O)CC[C@H](NC(=O)CCCCCCCCCCCCCCCCC(=O)O)C(=O)O)NC(=O)[C@@H](NC(=O)[C@H](CC(=O)O)NC(=O)[C@H](CC(C)C)NC(=O)[C@](C)(Cc1ccccc1)NC(=O)[C@H](CCCCN)NC(=O)[C@H](CO)NC(=O)[C@@H](NC(=O)[C@H](CC(=O)O)NC(=O)[C@H](CO)NC(=O)[C@@H](NC(=O)[C@H](Cc1ccccc1)NC(=O)[C@@H](NC(=O)CNC(=O)[C@H](CCC(N)=O)NC(=O)C(C)(C)NC(=O)[C@@H](N)Cc1c[nH]cn1)[C@@H](C)O)[C@@H](C)O)C(C)C)[C@@H](C)O)C(C)C)C(=O)N[C@@H](CC(C)C)C(=O)N[C@@H](CCC(=O)O)C(=O)NC(C)(C)C(=O)NCC(N)=O` [Peptide 466] (H-H[Aib]QGTFTSDVSK[αMeF]LDTK([AEEA-AEEA-γGlu-C18 diacid])RAQDFVQWLLE[Aib]G-NH2; N-terminus assumed), in assay [1], the EC50 turned out to be 0.0356 nM and the “% Relative Potency Ratio” value came to 7.3. For the same compound, the EC50 in assay [2] is 0.131 nM.

Consider `CC(C)C[C@H](NC(=O)[C@H](Cc1c[nH]c2ccccc12)NC(=O)[C@H](CCC(N)=O)NC(=O)[C@@H](NC(=O)[C@H](Cc1ccccc1)NC(=O)[C@H](CC(=O)O)NC(=O)[C@H](CCC(N)=O)NC(=O)[C@H](C)NC(=O)[C@H](CCCNC(=N)N)NC(=O)[C@H](CCCCNC(=O)COCCOCCNC(=O)COCCOCCNC(=O)CC[C@H](NC(=O)CC[C@H](NC(=O)CCCCCCCCCCCCCCCCC(=O)O)C(=O)O)C(=O)O)NC(=O)[C@@H](NC(=O)[C@H](CC(=O)O)NC(=O)[C@H](CC(C)C)NC(=O)[C@](C)(Cc1ccccc1)NC(=O)[C@H](CCCCN)NC(=O)[C@H](CO)NC(=O)[C@@H](NC(=O)[C@H](CC(=O)O)NC(=O)[C@H](CO)NC(=O)[C@@H](NC(=O)[C@H](Cc1ccccc1)NC(=O)[C@@H](NC(=O)CNC(=O)[C@H](CCC(N)=O)NC(=O)C(C)(C)NC(=O)[C@@H](N)Cc1c[nH]cn1)[C@@H](C)O)[C@@H](C)O)C(C)C)[C@@H](C)O)C(C)C)C(=O)N[C@@H](CC(C)C)C(=O)N[C@@H](CCC(=O)O)C(=O)NC(C)(C)C(=O)NCC(N)=O` [Peptide 468], for which, in assay [1], the concentration giving a half-maximal response (EC50) worked out at 0.0675 nM and the “% Relative Potency Ratio” value is reported as 8.6. Moreover, the EC50 in assay [2] was determined as 0.292 nM.
